Laboratory results taken from ChEMBL document CHEMBL5291721, “A preclinical secondary pharmacology resource illuminates target-adverse drug reaction associations of marketed drugs” (Nat Commun, 2023).

Experiments:
[1] = target: 5-hydroxytryptamine receptor 2B (Homo sapiens, UniProt P41595); assay type: functional, cell-based
[2] = target: 5-hydroxytryptamine receptor 2A (Homo sapiens, UniProt P28223); assay type: functional, cell-based
[3] = target: T1, Amine oxidase [flavin-containing] A (Homo sapiens, UniProt P21397); assay type: functional
T1 sequence (P21397 whole entry): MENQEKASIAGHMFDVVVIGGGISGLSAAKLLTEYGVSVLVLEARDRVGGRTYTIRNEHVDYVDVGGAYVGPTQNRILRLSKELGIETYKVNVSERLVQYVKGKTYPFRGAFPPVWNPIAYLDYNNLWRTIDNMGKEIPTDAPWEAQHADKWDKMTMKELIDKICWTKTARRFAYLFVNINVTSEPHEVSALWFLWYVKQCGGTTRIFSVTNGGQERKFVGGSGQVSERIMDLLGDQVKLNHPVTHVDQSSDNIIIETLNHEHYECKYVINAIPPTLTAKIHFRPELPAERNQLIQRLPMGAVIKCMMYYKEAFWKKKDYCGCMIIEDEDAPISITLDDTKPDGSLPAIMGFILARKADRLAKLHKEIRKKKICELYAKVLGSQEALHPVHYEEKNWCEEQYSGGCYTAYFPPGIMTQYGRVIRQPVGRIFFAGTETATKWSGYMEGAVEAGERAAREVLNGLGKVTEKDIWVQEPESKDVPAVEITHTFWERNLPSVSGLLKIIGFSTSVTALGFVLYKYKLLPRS

[4] = target: Delta-type opioid receptor (Homo sapiens, UniProt P41143)
Delta-type opioid receptor, sequence (P41143 whole entry): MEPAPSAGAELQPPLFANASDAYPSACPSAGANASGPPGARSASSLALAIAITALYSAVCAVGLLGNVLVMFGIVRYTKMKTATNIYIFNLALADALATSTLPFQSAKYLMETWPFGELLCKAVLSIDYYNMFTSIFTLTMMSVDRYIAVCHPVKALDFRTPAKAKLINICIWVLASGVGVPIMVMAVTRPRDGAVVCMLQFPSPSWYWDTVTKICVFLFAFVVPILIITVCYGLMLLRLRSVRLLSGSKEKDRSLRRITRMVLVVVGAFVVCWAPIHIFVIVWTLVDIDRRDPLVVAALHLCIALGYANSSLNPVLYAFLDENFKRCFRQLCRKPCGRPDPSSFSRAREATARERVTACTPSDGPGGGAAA

[5] = target: Beta-2 adrenergic receptor (Homo sapiens, UniProt P07550); assay type: functional, cell-based
Beta-2 adrenergic receptor, sequence (P07550 whole entry): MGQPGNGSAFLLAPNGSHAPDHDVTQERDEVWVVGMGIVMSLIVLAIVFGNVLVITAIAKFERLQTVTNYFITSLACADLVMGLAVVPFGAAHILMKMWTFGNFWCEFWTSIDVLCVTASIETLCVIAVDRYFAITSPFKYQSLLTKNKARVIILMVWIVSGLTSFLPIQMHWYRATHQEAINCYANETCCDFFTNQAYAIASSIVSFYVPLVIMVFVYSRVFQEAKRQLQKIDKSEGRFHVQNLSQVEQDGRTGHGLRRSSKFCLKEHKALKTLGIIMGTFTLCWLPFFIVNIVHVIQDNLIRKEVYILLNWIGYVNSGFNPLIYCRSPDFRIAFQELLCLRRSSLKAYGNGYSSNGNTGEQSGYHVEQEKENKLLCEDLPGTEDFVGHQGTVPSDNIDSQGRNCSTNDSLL

[6] = target: T2, Muscarinic acetylcholine receptor M2 (Homo sapiens, UniProt P08172); assay type: functional, cell-based
T2 sequence (P08172 whole entry): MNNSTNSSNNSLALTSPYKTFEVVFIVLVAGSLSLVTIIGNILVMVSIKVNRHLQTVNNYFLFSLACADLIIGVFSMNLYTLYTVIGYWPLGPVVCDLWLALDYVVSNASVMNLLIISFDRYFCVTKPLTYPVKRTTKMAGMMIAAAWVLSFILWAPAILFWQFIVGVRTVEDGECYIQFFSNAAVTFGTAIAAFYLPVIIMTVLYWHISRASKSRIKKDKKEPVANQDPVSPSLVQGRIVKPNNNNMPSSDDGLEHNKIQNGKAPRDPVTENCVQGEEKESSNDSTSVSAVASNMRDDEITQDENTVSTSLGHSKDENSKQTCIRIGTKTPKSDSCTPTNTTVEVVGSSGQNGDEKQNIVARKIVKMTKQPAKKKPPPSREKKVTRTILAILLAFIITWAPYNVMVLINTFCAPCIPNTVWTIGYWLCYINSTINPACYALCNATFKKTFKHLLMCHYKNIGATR

[7] = target: Mu-type opioid receptor (Homo sapiens, UniProt P35372); experiment: biochemical; assay type: functional
Mu-type opioid receptor, sequence (P35372 whole entry): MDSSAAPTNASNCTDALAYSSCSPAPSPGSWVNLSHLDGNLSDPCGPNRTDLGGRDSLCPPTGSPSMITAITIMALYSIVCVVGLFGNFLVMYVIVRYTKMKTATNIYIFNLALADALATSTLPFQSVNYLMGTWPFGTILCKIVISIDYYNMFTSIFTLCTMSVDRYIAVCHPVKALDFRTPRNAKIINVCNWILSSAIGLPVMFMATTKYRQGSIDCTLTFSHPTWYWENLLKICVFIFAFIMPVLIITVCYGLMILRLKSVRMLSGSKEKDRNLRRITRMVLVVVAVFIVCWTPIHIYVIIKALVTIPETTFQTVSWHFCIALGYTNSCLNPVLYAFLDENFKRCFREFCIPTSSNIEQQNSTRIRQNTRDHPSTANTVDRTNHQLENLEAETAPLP

[8] = target: D(1A) dopamine receptor (Homo sapiens, UniProt P21728); assay type: functional, cell-based
D(1A) dopamine receptor, sequence (P21728 whole entry): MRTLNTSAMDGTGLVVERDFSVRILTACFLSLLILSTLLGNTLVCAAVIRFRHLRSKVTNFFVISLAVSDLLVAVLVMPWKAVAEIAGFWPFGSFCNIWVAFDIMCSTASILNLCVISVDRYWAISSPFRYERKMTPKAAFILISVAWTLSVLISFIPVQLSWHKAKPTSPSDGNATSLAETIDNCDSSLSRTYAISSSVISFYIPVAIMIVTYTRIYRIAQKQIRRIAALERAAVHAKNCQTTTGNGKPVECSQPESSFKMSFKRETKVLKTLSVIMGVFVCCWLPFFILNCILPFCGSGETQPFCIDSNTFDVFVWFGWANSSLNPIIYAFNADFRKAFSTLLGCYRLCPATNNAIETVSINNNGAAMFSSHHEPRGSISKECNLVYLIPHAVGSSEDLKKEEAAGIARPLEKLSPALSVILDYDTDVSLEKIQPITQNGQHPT

[9] = target: T3, 5-hydroxytryptamine receptor 1A (Homo sapiens, UniProt P08908); assay type: functional, cell-based
T3 sequence (P08908 whole entry): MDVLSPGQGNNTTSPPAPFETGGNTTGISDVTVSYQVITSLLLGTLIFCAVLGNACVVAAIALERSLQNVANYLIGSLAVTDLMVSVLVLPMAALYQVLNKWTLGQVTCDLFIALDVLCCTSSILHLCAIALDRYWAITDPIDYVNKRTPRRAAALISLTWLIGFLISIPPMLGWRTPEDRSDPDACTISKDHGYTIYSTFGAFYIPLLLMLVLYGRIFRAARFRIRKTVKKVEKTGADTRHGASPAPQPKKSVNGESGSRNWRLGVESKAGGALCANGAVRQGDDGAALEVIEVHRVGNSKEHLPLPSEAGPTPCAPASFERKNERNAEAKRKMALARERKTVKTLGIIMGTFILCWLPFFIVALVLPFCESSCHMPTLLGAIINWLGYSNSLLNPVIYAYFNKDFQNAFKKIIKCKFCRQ

[10] = target: Gamma-aminobutyric acid receptor subunit alpha-1 (Rattus norvegicus, UniProt P62813)
Gamma-aminobutyric acid receptor subunit alpha-1, sequence (P62813 whole entry): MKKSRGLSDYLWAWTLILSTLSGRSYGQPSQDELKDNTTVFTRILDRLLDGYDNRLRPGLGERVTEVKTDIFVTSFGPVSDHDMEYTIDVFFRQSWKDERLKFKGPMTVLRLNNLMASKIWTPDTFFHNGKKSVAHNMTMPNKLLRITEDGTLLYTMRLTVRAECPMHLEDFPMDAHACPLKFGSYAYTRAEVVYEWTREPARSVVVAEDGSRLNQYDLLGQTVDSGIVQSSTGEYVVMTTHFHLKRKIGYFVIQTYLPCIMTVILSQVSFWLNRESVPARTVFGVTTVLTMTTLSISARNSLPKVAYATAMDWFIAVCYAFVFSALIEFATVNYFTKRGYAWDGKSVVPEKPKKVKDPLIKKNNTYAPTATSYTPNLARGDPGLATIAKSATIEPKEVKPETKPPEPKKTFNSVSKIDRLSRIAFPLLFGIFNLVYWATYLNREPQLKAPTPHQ

[11] = target: T4, 5-hydroxytryptamine receptor 2C (Homo sapiens, UniProt P28335)
T4 sequence (P28335 whole entry): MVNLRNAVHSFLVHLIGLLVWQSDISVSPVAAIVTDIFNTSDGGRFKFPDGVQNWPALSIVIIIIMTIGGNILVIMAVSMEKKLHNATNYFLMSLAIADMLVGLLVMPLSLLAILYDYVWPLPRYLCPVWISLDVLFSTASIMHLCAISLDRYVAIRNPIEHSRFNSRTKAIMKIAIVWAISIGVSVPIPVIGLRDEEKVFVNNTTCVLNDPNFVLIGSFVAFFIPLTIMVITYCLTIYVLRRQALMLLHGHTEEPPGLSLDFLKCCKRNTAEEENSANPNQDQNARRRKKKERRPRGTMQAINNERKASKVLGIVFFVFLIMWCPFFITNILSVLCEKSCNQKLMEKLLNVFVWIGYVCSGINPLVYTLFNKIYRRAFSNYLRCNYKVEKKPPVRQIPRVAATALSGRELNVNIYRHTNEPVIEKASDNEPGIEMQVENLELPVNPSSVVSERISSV

[12] = target: Melanocortin receptor 4 (Homo sapiens, UniProt P32245)
Melanocortin receptor 4, sequence (P32245 whole entry): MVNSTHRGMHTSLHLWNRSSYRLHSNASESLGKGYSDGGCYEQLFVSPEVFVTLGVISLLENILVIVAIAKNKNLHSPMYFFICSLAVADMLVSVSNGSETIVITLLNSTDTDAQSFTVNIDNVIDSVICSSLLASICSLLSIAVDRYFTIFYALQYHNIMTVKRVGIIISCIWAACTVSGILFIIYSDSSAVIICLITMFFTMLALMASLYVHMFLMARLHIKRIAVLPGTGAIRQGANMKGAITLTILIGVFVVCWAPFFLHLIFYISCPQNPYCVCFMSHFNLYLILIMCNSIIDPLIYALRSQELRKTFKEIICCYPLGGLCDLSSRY

[13] = target: T5, Adenosine receptor A3 (Homo sapiens, UniProt P0DMS8)
T5 sequence (P0DMS8 whole entry): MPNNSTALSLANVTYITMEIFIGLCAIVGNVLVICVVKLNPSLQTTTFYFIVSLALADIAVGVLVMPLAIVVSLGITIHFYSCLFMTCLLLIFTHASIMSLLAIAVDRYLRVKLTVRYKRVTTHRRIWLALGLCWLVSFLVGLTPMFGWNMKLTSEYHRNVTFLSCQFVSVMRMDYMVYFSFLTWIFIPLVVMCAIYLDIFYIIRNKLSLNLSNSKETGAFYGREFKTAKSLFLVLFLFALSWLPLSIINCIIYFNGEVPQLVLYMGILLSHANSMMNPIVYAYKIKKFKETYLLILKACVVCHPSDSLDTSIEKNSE

[14] = target: T2, Muscarinic acetylcholine receptor M2
[15] = target: T1, Amine oxidase [flavin-containing] A; assay type: functional; remark: listed apart in the source
[16] = target: Sodium-dependent dopamine transporter (Homo sapiens, UniProt Q01959)
Sodium-dependent dopamine transporter, sequence (Q01959 whole entry): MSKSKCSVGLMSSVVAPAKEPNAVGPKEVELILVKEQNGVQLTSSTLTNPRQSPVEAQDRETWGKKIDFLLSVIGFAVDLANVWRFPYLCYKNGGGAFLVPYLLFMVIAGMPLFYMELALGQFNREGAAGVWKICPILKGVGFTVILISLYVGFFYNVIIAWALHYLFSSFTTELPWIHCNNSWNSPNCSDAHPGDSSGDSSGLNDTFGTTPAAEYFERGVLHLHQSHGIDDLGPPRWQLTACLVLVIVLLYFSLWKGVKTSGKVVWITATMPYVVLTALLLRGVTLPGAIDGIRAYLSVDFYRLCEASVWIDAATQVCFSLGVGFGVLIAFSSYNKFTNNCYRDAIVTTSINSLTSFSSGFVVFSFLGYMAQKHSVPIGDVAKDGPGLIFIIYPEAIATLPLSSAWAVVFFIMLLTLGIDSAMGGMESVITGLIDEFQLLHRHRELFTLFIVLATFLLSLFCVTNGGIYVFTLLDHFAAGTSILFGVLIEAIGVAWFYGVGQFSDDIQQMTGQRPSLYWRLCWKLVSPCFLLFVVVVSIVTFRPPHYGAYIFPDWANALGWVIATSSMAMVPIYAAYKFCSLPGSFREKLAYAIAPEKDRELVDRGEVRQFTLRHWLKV
Further: assay procedure not described here.

5-hydroxytryptamine receptor 2A, sequence (P28223 whole entry): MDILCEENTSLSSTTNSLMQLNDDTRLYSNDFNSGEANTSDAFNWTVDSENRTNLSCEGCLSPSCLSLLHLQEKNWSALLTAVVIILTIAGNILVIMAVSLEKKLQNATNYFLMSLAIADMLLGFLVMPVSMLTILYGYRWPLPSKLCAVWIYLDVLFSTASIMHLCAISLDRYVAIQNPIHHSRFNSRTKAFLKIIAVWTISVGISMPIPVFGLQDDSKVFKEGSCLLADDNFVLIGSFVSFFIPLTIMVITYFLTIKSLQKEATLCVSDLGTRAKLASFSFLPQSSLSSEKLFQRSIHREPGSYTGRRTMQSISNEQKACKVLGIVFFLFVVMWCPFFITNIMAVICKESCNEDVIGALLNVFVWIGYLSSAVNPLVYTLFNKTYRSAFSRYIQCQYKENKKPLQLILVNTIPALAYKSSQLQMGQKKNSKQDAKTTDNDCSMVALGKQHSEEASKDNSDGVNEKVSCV
5-hydroxytryptamine receptor 2B, sequence (P41595 whole entry): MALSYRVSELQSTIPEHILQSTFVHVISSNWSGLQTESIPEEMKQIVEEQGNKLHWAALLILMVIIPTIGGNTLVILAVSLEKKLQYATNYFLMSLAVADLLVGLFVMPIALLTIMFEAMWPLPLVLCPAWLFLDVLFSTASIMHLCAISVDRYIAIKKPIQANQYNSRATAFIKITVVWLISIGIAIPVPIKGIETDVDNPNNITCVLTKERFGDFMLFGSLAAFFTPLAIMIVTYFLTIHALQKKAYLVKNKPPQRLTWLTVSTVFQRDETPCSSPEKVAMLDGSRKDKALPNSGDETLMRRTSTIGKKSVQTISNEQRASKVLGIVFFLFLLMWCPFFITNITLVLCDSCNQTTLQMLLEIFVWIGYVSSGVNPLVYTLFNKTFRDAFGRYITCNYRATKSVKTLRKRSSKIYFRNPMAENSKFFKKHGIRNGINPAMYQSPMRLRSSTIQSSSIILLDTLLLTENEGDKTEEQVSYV

Compound | AC50 [4] [µM] | AC50 [5] [µM] | AC50 [8] [µM] | AC50 [10] [µM] | AC50 [11] [µM] | AC50 [12] [µM] | AC50 [1] [µM] | AC50 [2] [µM] | AC50 [3] [µM] | AC50 [6] [µM] | AC50 [7] [µM] | AC50 [9] [µM] | AC50 [13] [µM] | AC50 [14] [µM] | AC50 [15] [µM] | AC50 [16] [µM]
CO/N=C(\C(=O)N[C@@H]1C(=O)N2C(C(=O)[O-])=C(C[N+]3(C)CCCC3)CS[C@H]12)c1csc(N)n1 | > 300 | > 300 | > 300 | > 30 | > 300 |  | > 300 | > 300 | > 300 | > 300 | > 30 | > 300 |  |  |  | 
Nc1nc(N)c2nc(-c3ccccc3)c(N)nc2n1 | > 30 | > 30 | > 30 | > 30 | > 30 | > 10 | > 30 |  | > 30 | > 30 | > 30 | > 10 | > 30 | > 30 | > 30 | > 30
C[C@H]1O[C@H](O[C@H]2[C@H](O)[C@@H](O)[C@@H](O[C@H]3[C@H](O)[C@@H](O)C(O)O[C@@H]3CO)O[C@@H]2CO)[C@H](O)[C@@H](O)[C@@H]1N[C@H]1C=C(CO)[C@@H](O)[C@H](O)[C@H]1O (some centres not stated) [ACARBOSE] | > 10 | > 30 | > 10 |  | > 30 | > 30 | > 30 |  | > 10 | > 10 | > 30 | > 10 | > 30 | > 30 | > 30 | > 30
Oc1ncnc2[nH]ncc12 [ALLOPURINOL] | > 30 | > 30 | > 10 | > 10 | > 30 | > 30 | > 10 |  | > 30 | > 10 |  | > 10 | > 30 | > 30 | > 30 | > 30
COC(=O)[C@@H]1CC2=CC(=O)CC[C@]2(C)[C@@]23O[C@@H]2C[C@@]2(C)[C@@H](CC[C@@]24CCC(=O)O4)[C@H]13 [EPLERENONE] | > 30 | > 30 | > 30 | > 10 | > 30 | > 30 | > 30 | > 30 | > 30 | > 30 |  | > 30 |  |  |  | 
OCCN1CCN(CCCN2c3ccccc3C=Cc3ccccc32)CC1 [OPIPRAMOL] | > 30 | > 30 | > 30 |  | > 30 |  | > 30 | > 30 | > 30 | > 30 | 15 | > 30 |  | 9.58 | > 30 | 10.9
CC(C(=O)O)c1ccc(N2CC=CC2)c(Cl)c1 (configuration not stated) [PIRPROFEN] | > 30 | > 30 | > 10 | > 10 | > 30 | > 30 | > 10 | > 30 | > 10 | > 10 |  | > 10 | > 30 | > 30 | > 30 | > 30

Further lines, with some results ahead:

AC50 [4] [µM] | AC50 [5] [µM] | AC50 [8] [µM] | AC50 [10] [µM] | AC50 [11] [µM] | AC50 [12] [µM] | Compound | AC50 [1] [µM] | AC50 [2] [µM] | AC50 [3] [µM] | AC50 [6] [µM] | AC50 [7] [µM] | AC50 [9] [µM] | AC50 [13] [µM] | AC50 [14] [µM] | AC50 [15] [µM] | AC50 [16] [µM]
> 10 | > 30 | > 10 | > 10 | > 10 | > 30 | CCOC(=O)[C@H](CCc1ccccc1)N[C@@H](C)C(=O)N1CCC[C@H]1C(=O)O | > 10 |  | > 10 | > 10 |  | > 10 |  |  |  | 
> 30 | > 30 | > 30 |  | > 10 |  | N[C@@H](C(=O)N[C@@H]1C(=O)N2C(C(=O)O)=C(Cl)CS[C@H]12)c1ccccc1 [CEFACLOR ANHYDROUS] | > 30 | > 30 | > 30 | > 30 | > 30 |  |  |  |  | 
> 30 | > 30 | > 10 | > 10 | > 30 | > 30 | CCC[C@@H]1C[C@@H](C(=O)N[C@@H]([C@H]2O[C@H](SC)[C@H](O)[C@@H](O)[C@H]2O)[C@H](C)Cl)N(C)C1 [CLINDAMYCIN] | > 10 |  | > 10 | > 10 |  | > 10 |  |  |  | 
> 30 | > 30 | > 10 | > 10 | > 30 | > 30 | COc1cc2c(cc1OC)C(=O)C(CC1CCN(Cc3ccccc3)CC1)C2 (configuration not stated) [DONEPEZIL] |  | > 30 |  |  |  |  | > 30 |  |  | 9.78
> 10 | > 30 | > 10 | > 10 | > 10 | > 30 | NC(N)=Nc1nc(CSCCC(N)=NS(N)(=O)=O)cs1 [FAMOTIDINE] | > 10 |  | 8.1 | > 10 |  | > 10 |  |  |  | 
> 30 | > 30 | > 10 | > 10 | > 10 | > 30 | CCN(CC)CCNC(=O)c1cc(Cl)c(N)cc1OC [METOCLOPRAMIDE] | 4.3 |  | > 10 |  |  | > 10 |  |  |  | 
> 30 | > 30 | > 30 |  | > 30 |  | NC(=O)c1ncn([C@@H]2O[C@H](CO)[C@@H](O)[C@H]2O)c1O [MIZORIBINE] | > 30 | > 30 | > 30 | > 30 | > 30 | > 30 |  |  |  | 
> 30 | > 30 | > 30 | > 10 | > 30 | > 30 | O=C(CCCCCCC(=O)Nc1ccccc1)NO [VORINOSTAT] | > 30 | > 30 | > 30 | > 30 | > 30 | > 30 |  |  |  | 
